Measurements taken from patent US5403932A, “Phosphoramidates useful as antitumor agents” (Research Corporation Technologies, Inc., priority 1994, dated 1995).
Where two headings read alike, the source gives them in different places.

Key:
[1] = test system: HT29 human colon cancer cells; experiment: Aerobic and hypoxic selectivity against human colon cancer HT29 cells, colony formation; type: cell-based; details: 4 h
Procedure: HT29 human colon cancer cells were maintained in exponential growth in α-MEM medium supplemented with 10% fetal bovine serum and 25 mM HEPES buffer, and cultured at 37° C. and 3% CO2. For drug treatments, 1-2×10^6 cells in 10 ml of medium were transferred to glass reaction vials. For the hypoxic experiments, the medium was first gassed for 3 hr with 95% nitrogen/5% CO2 to achieve a partial pressure of oxygen <100 ppm. These cell suspensions were then treated with drug at different concentrations under either aerobic or hypoxic conditions for 4 hr in the reaction vials. The medium was removed, the cells were washed, and a colony formation assay was carried out as described above in Example 15. Colonies with […] 50 cells were counted 12-14 days after plating. The log of the surviving fraction was plotted against drug concentration, and from this plot the concentration required to reduce the colony number to 10% of control (LC90) was determined. The results of this test on representative compounds of the present invention are depicted in Table 4.

B16 melanoma cells = experiment: Cytotoxicity against B16 melanoma cells, colony formation; type: cell-based; details: B16 mouse melanoma, 2 h treatment; read-out: Drug Concentration required to kill 90% of Clonogenic Tumor Cells In Vitro (LC90), B/16
Procedure: B16 melanoma cells in exponential growth (2-3×10^6 cells in 10 ml of serum-free MEM medium) were treated with drug for 2 hr. The cells were separated, washed, and resuspended in MEM medium supplemented with 10% fetal bovine serum. The cells were plated in 60-mm culture dishes at a density of 50-50,000 cells/plate (depending upon the drug concentration used) and then incubated for 8 days in a CO2 incubator at 37°. The colonies were fixed and stained with 0.5% crystal violet in ethanol and counted. The log of the surviving fraction was plotted against drug concentration, and from this plot the concentration required to reduce the colony number to 10% of control (LC90) was determined.

[2] = test system: KHT/iv cells (mouse KHT sarcoma); experiment: Hypoxic cell selectivity using KHT/iv cells, clonogenic assay; type: cell-based; details: 4 h at 37°; for LC99, Aerobic: aerobic (95:5 air:CO2); for LC99, Hypoxic: hypoxic (95:5 nitrogen:CO2)
Procedure: KHT/iv cells were adapted to cell culture from tile mouse KHT sarcoma by Dietmar Siemann, University of Rochester. Cells were maintained in Eagle's basal medium and 10% fetal calf serum for all experiments. Cells in exponential growth were trypsinized from monolayer cultures and separated from one another by agitation in a gas-tight syringe at a density of 1-2×10^7 cells/ml for 15 minutes at 37°. The cells were then resuspended in HEPES-buffered Eagle's medium contained in stirred gas-tight vials at a final density of 2×10^7 cells/ml; before cells or drugs were added, the vials were pre-equilibrated with humidified gas having tile composition 95:5 air:CO2 for aerobic treatment or 95:5 nitrogen:CO2 from hypoxic treatment. Oxygen tension in the hypoxic medium was approximately 100 ppm after tile equilibration period. Drug was dissolved a volume of ethanol that would give a final ethanol concentration of 1% in the medium; this concentration of ethanol had no effect on the plating efficiency of control cell preparations. Cells were incubated with drug under aerobic or hypoxic conditions at 37° for 4 hours. The cells were then removed from the vials, washed with drug-free medium, counted, and plated for cell survival using a standard clonogenic assay. Cell surviving fraction was plotted vs. drug concentration, and the LC99 values were obtained from the least squares equation.

[3] = test system: P388/O (cyclophosphamide sensitive) murine leukemia cells; experiment: Soft agar colony-forming assay, in vitro cytotoxicity against cyclophosphamide-sensitive P388 murine leukemia; type: cell-based, mouse; details: 1 h at 37°, 99% cell kill
Procedure: (§1) The In Vitro cytotoxic activity of representative compounds under hypoxic and aerobic conditions were evaluated as follows.
(§2) A soft agar colony-forming assay according to the procedure of Chu and Fischer, Biochem. Pharmacol., 17, 753-767 (1968) was used and modified where necessary. Cultured mouse L1210 and P388 sensitive cells were purchased from EG&G Mason Research Institute, Tumor Bank, Worchester, Ma. Cultured cyclophosphamide resistant L1210 and P388 cells were obtained from Dr. Robert Struck of Southern Research Institute, Birmingham, Ala. Typically, the desired cells (2-3×10^6 cells/ml) in exponential growth and suspended in 6.5 ml of Fischer's medium (Gibco Lab., Grand Island, N.Y.) were divided into six groups (1 control and 5 treated groups) containing an equal number of cells in 1 ml. These cells were then treated with varying doses of drug diluted with media to give a total volume of 10 ml, and incubated for one hour at 37° C. The cells were washed three times with 3 ml of supplemented Fischer's medium (containing 10% horse serum) by centrifuge (800×g), removal of media by suction, and resuspension of the pellet in media (5 ml). A 1-ml portion was used to determine the cell count with a Coulter counter. From the remainder, a 5-ml suspension of cells was prepared at a density of 10^5 cells/ml, and between 10^2 and 10^5 cells were placed on soft agar and incubated at 37° C. Colonies were counted after 10 days. The log of the surviving fraction was plotted vs. drug concentration and from this plot the LC99 was obtained. (By definition, the LC99 value represents the concentration of drug necessary to effect a 99% cell kill.)

[4] = test system: L1210/O (cyclophosphamide sensitive) murine leukemia cells; experiment: Soft agar colony-forming assay, in vitro cytotoxicity against cyclophosphamide-sensitive L1210 murine leukemia; type: cell-based, mouse; details: 1 h at 37°, 99% cell kill
Procedure: as §1, §2

[5] = test system: L1210/CP (cyclophosphamide resistant) murine leukemia cells; experiment: Soft agar colony-forming assay, in vitro cytotoxicity against cyclophosphamide-resistant L1210 murine leukemia; type: cell-based, mouse; details: 1 h at 37°, 99% cell kill
Procedure: as §1
as §2, with “From the remainder, a 5-ml suspension of cells was prepared at a density of 10^5 cells/ml, and between 10^2 and 10^5 cells were placed on soft agar and incubated at 37° C.” left out, “The log of the surviving fraction was plotted vs. drug concentration and from this plot the LC99 was obtained. (By definition, the LC99 value represents the concentration of drug necessary to effect a 99% cell kill.)” left out

[6] = test system: P388/CP (cyclophosphamide resistant) murine leukemia cells; experiment: Soft agar colony-forming assay, in vitro cytotoxicity against cyclophosphamide-resistant P388 murine leukemia; type: cell-based, mouse; details: 1 h at 37°, 99% cell kill
Procedure: as §1
as §2, with “From the remainder, a 5-ml suspension of cells was prepared at a density of 10^5 cells/ml, and between 10^2 and 10^5 cells were placed on soft agar and incubated at 37° C.” left out, “The log of the surviving fraction was plotted vs. drug concentration and from this plot the LC99 was obtained. (By definition, the LC99 value represents the concentration of drug necessary to effect a 99% cell kill.)” left out

[7] = Table 4, aerobic, read-out: Drug Concentration required to kill 90% of Clonogenic Tumor Cells In Vitro (LC90), HT29 Aerobic
[8] = Table 4, hypoxic (95% nitrogen/5% CO2), read-out: Drug Concentration required to kill 90% of Clonogenic Tumor Cells In Vitro (LC90), HT29 Hypoxic
[9] = Table 3, aerobic, read-out: Drug Concentration required to kill 90% of Clonogenic Tumor Cells In Vitro (LC90), HT29 Aerobic
[10] = Table 3, hypoxic (95% nitrogen/5% CO2), read-out: Drug Concentration required to kill 90% of Clonogenic Tumor Cells In Vitro (LC90), HT29 Hypoxic

SMILES | IC90 (B16 melanoma cells) | IC90 [1, 9] | IC90 [1, 10] | further results
CCOC(=O)CC(OP(N)(=O)N(CCCl)CCCl)c1cc(CN(C)C)cc2cc([N+](=O)[O-])cnc12 (centres unmarked) | – | – | – | IC90 [1, 7]: 700 µM; IC90 [1, 8]: 95 µM
CCOC(=O)CC(OP(=O)(N(CCCl)CCCl)N(CCCl)CCCl)c1ccc([N+](=O)[O-])c(C)n1 (centres unmarked) [Compound 16, O-(1(6-methyl-5-nitro-2-pyridyl)-2-carbethoxyethyl)-N,N,N'N'-tetrakis(2-chloroethyl)phosphoramide] | 150 µM | 110 µM | 25 µM | –
CCOC(=O)CC(OP(=O)(N(CCCl)CCCl)N(CCCl)CCCl)c1cc([N+](=O)[O-])ccn1 (centres unmarked) [Compound 17, O-(1-(4-nitro-2-pyridyl)-2-carbethoxyethyl)-N,N,N',N'-tetrakis(2-Chloroethyl)phosphoramide] | 50 µM | 80 µM | 35 µM | –
CC(OP(=O)(N(CCCl)CCCl)N(CCCl)CCCl)c1ccc([N+](=O)[O-])cc1 (centres unmarked) | – | – | – | IC90 [1, 7]: > 500 µM; IC90 [1, 8]: 45 µM
NP(=O)(OCc1ccc([N+](=O)[O-])cc1)N(CCCl)CCCl (centres unmarked) [Compound 4-nitro] | – | – | – | LC99, Aerobic [2]: 320; LC99, Hypoxic [2]: 120
CN(C)CCOC(=O)CC(OP(=O)(N(CCCl)CCCl)N(CCCl)CCCl)c1ccc([N+](=O)[O-])s1 (centres unmarked) [Compound 14, O-(1-(5-nitro-2-thiophene)-2-(2-N,N-dimethylaminoethoxycarbonyl)ethyl)-N,N,N'N'-tetrakis-(2-chloroethyl)-phosphoramide] | 2.8 µM | 7.5 µM | 3 µM | –
CN(C)CCOC(=O)CC(OP(=O)(N(CCCl)CCCl)N(CCCl)CCCl)c1ccc([N+](=O)[O-])cc1 (centres unmarked) [Compound 13, O-(1-(4-nitrophenyl)-2-(2-N,N-dimethylaminoethoxycarbonyl)ethyl)-N,N,N'N'-tetrakis-(2-chloroethyl)phosphoramide] | < 2 µM | 60 µM | 35 µM | –
COC(=O)CC(OP(N)(=O)N(CCCl)CCCl)c1ccc([N+](=O)[O-])cc1 (centres unmarked) [4-NO2 Ph, methyl 3-(4-nitrophenyl)-3-(N,N-bis-(2-chloroethyl)phosphorodiamido) propionate] | – | – | – | LC99 [3]: 82; LC99 [4]: 138; LC99 [5]: 152; LC99 [6]: 77
COC(=O)CC(OP(N)(=O)N(CCCl)CCCl)c1ccccc1 (centres unmarked) [Ph, reference compound] | – | – | – | LC99 [3]: 300; LC99 [4]: 350
CCOC(=O)CC(OP(=O)(N(CCCl)CCCl)N(CCCl)CCCl)c1ccc([N+](=O)[O-])cc1 (centres unmarked) [Compound 12, O-(1-(4-nitrophenyl)-2-carbethoxyethyl)-N,N,N',N'-tetrakis(2-chloroethyl)phosphoramide] | > 100 µM | 80 µM | 12 µM | –
CCOC(=O)CC(OP(=O)(N(CCCl)CCCl)N(CCCl)CCCl)c1ccc([N+](=O)[O-])s1 (centres unmarked) [Compound 15, O-(1-(5-nitro-2-thiophene)-2-carbethoxyethyl)-N,N,N'N'-tetrakis(2-chloroethyl)phosphoramide] | 3 µM | – | – | –
NP(=O)(OCc1ccccc1[N+](=O)[O-])N(CCCl)CCCl (centres unmarked) [Compound 2-nitro] | – | – | – | LC99, Aerobic [2]: 700; LC99, Hypoxic [2]: 230
COC(=O)CC(OP(N)(=O)N(CCCl)CCCl)c1ccccc1[N+](=O)[O-] (centres unmarked) [2-NO2 Ph, methyl 3-(2-nitrophenyl)-3-(N,N-bis(2-chloroethyl)phosphorodiamido)propionate] | – | – | – | LC99 [3]: 134; LC99 [4]: 172
